Measurements from US20090247624A1, “FORMULATIONS OF RADIOPROTECTIVE ALPHA BETA UNSATURATED ARYL SULFONES” (Onconova Therapeutics Inc., priority 2006, published 2009).

How the values were obtained:
[1] = tested on: HFL-1 cells; test: Radioprotective effects on cultured normal cells (colony count); type: cell-based, human; settings: 2.5 to 20 micromolar for 24 hrs before 10 Gy or 15 Gy; colonies on test plates / control plates
Procedure: HFL-1 cells, which are normal diploid lung fibroblasts, were plated into 24 well dishes at a cell density of 3000 cells per 10 mm^2 in DMEM completed with 10% fetal bovine serum and antibiotics. The test compounds listed in Table 11 were added to the cells 24 hours later in select concentrations from 2.5 to 20 micromolar, inclusive, using DMSO as a solvent. Control cells were treated with DMSO alone. The cells were exposed to the test compound or DMSO for 24 hrs. The cells were then irradiated with either 10 Gy (gray) or 15 Gy of ionizing radiation (IR) using a J. L. Shepherd Mark I, Model 30-1 Irradiator equipped with ^137cesium as a source.
After irradiation, the medium on the test and control cells was removed and replaced with fresh growth medium without the test compounds or DMSO. The irradiated cells were incubated for 96 hours and duplicate wells were trypsinized and replated onto 100 mm^2 tissue culture dishes. The replated cells were grown under normal conditions with one change of fresh medium for 3 weeks. The number of colonies from each 100 mm^2 culture dish, which represents the number of surviving cells, was determined by staining the dishes as described below.
To visualize and count the colonies derived from the clonal outgrowth of individual radioprotected cells, the medium was removed and the plates were washed one time with room temperature phosphate buffered saline. The cells were stained with a 1:10 diluted Modified Giemsa staining solution (Sigma) for 20 minutes. The stain was removed, and the plates were washed with tap water. The plates were air dried, the number of colonies from each plate were counted and the average from duplicate plates was determined.
A “+” indicates radioprotective activity of between 2- and 4.5-fold at the concentrations tested. Fold protection was determined by dividing the average number of colonies from the test plates by the average number of colonies on the control plates.

[2] = tested on: C57 black mice; test: Protection of mice from radiation toxicity by pre-treatment; type: in vivo
Procedure: C57 black mice age 10-12 weeks (Taconic) were divided into two treatment groups of 10 mice each. One group, designated the “200×2” group, received intraperitoneal injections of 200 micrograms (E)-4-carboxystyryl-4-chlorobenzylsulfone dissolved in DMSO (a 10 mg/Kg dose, based on 20 g mice) 18 and 6 hours before irradiation with 8 Gy gamma radiation. The other group, designated “500×2,” received intraperitoneal injections of 500 micrograms (E)-4-carboxystyryl-4-chlorobenzylsulfone dissolved in DMSO (a 25 mg/Kg dose, based on 20 g mice) 18 and 6 hours before irradiation with 8 Gy gamma radiation. A control group of 16 animals received 8 Gy gamma radiation alone.

[3] = room temperature; cited from earlier work
[4] = tested on: human; settings: approximately 500 mg/kg iv continuously as 5 percent aqueous solution, one individual, four days; cited from earlier work
[5] = tested on: rodent species; settings: after IP and IV administration to different rodent species; cited from earlier work
[6] = “200×2” group: 10 mg/Kg i.p. 18 and 6 hours before 8 Gy gamma radiation
[7] = “500×2” group: 25 mg/Kg i.p. 18 and 6 hours before 8 Gy gamma radiation

Compound	Activity (radioprotection, fold protection) [1]	further results
O=S(=O)(/C=C/c1ccc(F)cc1)Cc1ccc(Cl)cc1 [Compound 1, (E)-4-Fluorostyryl-4-chlorobenzylsulfone]	+ (A “+” indicates radioprotective activity of between 2- and 4.5-fold at the concentrations tested)	–
O=S(=O)(/C=C\c1ccc(F)cc1)Cc1ccc(Cl)cc1 [Compound 7, (Z)-4-Fluorostyryl-4-chlorobenzylsulfone]	+ (A “+” indicates radioprotective activity of between 2- and 4.5-fold at the concentrations tested)	–
O=S(=O)(/C=C/c1ccoc1)Cc1ccc(Cl)cc1Cl [Compound 8, (E)-3-Furanethenyl-2,4-dichlorobenzylsulfone]	+ (A “+” indicates radioprotective activity of between 2- and 4.5-fold at the concentrations tested)	–
O=C(O)c1ccc(/C=C/S(=O)(=O)Cc2ccc(Cl)cc2)cc1 [Compound 13, (E)-4-Carboxystyryl-4-chlorobenzylsulfone]	+ (A “+” indicates radioprotective activity of between 2- and 4.5-fold at the concentrations tested)	maximum mortality rate by day 40 [2, 6]: approximately 60%; mice dead at day 20 [2, 6]: about 50%; maximum mortality rate by day 40 [2, 7]: about 50%; mice dead at day 20 [2, 7]: about 30%
(E)-2,4,6-Trimethoxystyryl-4-methoxybenzylsulfone [Compound 2]	+ (A “+” indicates radioprotective activity of between 2- and 4.5-fold at the concentrations tested)	–
(E)-4-Fluorostyryl-4-chlorophenylsulfone [Compound 10]	+ (A “+” indicates radioprotective activity of between 2- and 4.5-fold at the concentrations tested)	–
(E)-4-Fluorostyryl-4-cyanobenzylsulfone [Compound 6]	+ (A “+” indicates radioprotective activity of between 2- and 4.5-fold at the concentrations tested)	–
(E)-4-Fluorostyryl-4-trifluoromethylbenzylsulfone [Compound 5]	+ (A “+” indicates radioprotective activity of between 2- and 4.5-fold at the concentrations tested)	–
(Z)-Styryl-(E)-2-methoxy-4-ethoxystyrylsulfone [Compound 11]	+ (A “+” indicates radioprotective activity of between 2- and 4.5-fold at the concentrations tested)	–
Hydroxypropyl-B-Cyclodextrin [HPCD]	–	solubility in water [3]: greater than 500 mg/ml; adverse clinical effects [4]: no adverse clinical effects were reported; toxicity [5]: non-toxic
